Experimental data from the NIST ThermoML archive (doi:10.1016/j.jct.2010.05.002).

Assay: molar heat capacity at constant pressure
Details: 101.33 kPa, Crystal, Vacuum adiabatic calorimetry

CC(C)(C)c1ccc(-c2ccccc2)cc1 [4-(1,1-dimethylethyl)-1,1'-biphenyl]
Details	molar heat capacity at constant pressure [J/K/mol]
8.3 K	2.522
8.57 K	2.757
9.11 K	3.228
9.63 K	3.765
9.89 K	4.01
11.01 K	5.257
11.39 K	5.703
11.77 K	6.312
12.15 K	6.72
12.53 K	7.182
12.92 K	7.664
13.28 K	8.377
13.65 K	8.833
14.02 K	9.436
14.39 K	9.935
14.75 K	10.39
15.11 K	10.96
15.48 K	11.37
15.83 K	12.26
16.19 K	12.78
16.55 K	13.21
16.91 K	13.77
17.27 K	14.49
17.62 K	15.23
17.98 K	15.86
18.33 K	16.18
18.68 K	16.71
19.03 K	16.98
19.38 K	17.88
19.73 K	18.48
20.08 K	19.01
20.76 K	20.23
21.53 K	21.57
22.31 K	22.77
23.08 K	23.92
23.85 K	25.18
24.62 K	26.43
25.38 K	27.38
26.14 K	28.32
26.9 K	30.11
27.66 K	31.35
28.42 K	32.53
29.17 K	33.54
29.93 K	34.42
30.68 K	35.96
31.43 K	37.32
32.19 K	38.43
32.96 K	38.73
33.71 K	40.37
34.46 K	41.38
35.21 K	42.08
35.96 K	43.44
36.71 K	44.59
37.46 K	45.86
38.21 K	46.57
38.96 K	47.65
39.71 K	48.45
40.46 K	49.16
41.21 K	50.62
41.95 K	51.64
42.7 K	52.5
43.45 K	53.06
44.2 K	53.77
44.95 K	55.03
45.69 K	55.67
46.44 K	57.1
47.19 K	57.29
47.93 K	58.61
48.68 K	59.76
49.43 K	60.29
50.18 K	60.84
50.92 K	61.9
51.67 K	62.56
52.42 K	63.33
53.16 K	64.3
53.91 K	65.39
54.65 K	65.94
55.4 K	66.72
56.14 K	67.31
56.89 K	68.21
57.64 K	68.36
58.38 K	69.38
59.12 K	69.98
59.86 K	70.84
60.61 K	71.8
61.35 K	72.22
62.09 K	73.3
62.83 K	73.97
63.57 K	75.16
64.31 K	75.92
65.06 K	76.6
65.8 K	77.49
66.54 K	77.97
67.27 K	79.07
68.02 K	79.18
68.76 K	79.62
69.49 K	80.06
70.22 K	80.55
71.11 K	81.26
72.16 K	81.97
73.2 K	83.77
74.24 K	85.78
75.29 K	87.62
76.33 K	89.61
77.37 K	91.7
78.41 K	93.86
78.6 K	93.38
79.46 K	95.29
79.89 K	95.59
80.5 K	96.68
80.92 K	97.16
81.55 K	97.38
81.96 K	98.92
82.59 K	99.16
82.99 K	99.71
83.63 K	100.81
84.02 K	101.38
84.67 K	102.6
85.05 K	103.37
85.71 K	104.76
86.08 K	105.1
87.11 K	107.71
88.14 K	109.06
89.18 K	109.08
90.21 K	110.43
91.24 K	111.94
92.26 K	112.49
93.29 K	113.67
94.32 K	115.2
95.34 K	116.2
96.36 K	117.24
97.39 K	117.75
98.41 K	119.69
99.44 K	121.4
100.46 K	120.13
101.48 K	122.02
102.5 K	123.38
103.53 K	123.38
104.55 K	124.78
105.57 K	125.7
106.59 K	125.94
107.6 K	126.55
108.62 K	127.46
109.63 K	129.07
110.65 K	130.3
111.66 K	130.29
112.67 K	130.99
113.68 K	131.82
114.69 K	132.86
115.71 K	133.48
116.72 K	133.98
117.73 K	134.55
118.74 K	135.11
119.75 K	136.16
120.76 K	136.83
121.76 K	137.18
122.77 K	138
123.77 K	138.81
124.78 K	139.92
125.78 K	140.34
126.79 K	141.2
127.78 K	141.96
128.78 K	142.63
129.78 K	143.1
130.78 K	144.73
131.78 K	145.34
132.78 K	145.71
133.78 K	146.29
134.78 K	147.05
135.77 K	147.52
136.77 K	148.34
137.77 K	149.37
138.76 K	149.38
139.75 K	150.91
140.74 K	152.15
141.74 K	153
142.73 K	153.45
143.7 K	153.84
144.69 K	154.76
145.68 K	154.88
146.67 K	155.86
147.65 K	157.44
148.64 K	158.13
149.63 K	159.37
150.61 K	159.11
151.59 K	161.68
152.58 K	161.75
153.56 K	162.27
154.54 K	162.57
155.52 K	163.19
